Data from patent publication US20250340538A1, “IMIDAZOLONE DERIVATIVES AS INHIBITORS OF PROTEIN KINASES IN PARTICULAR DYRK1A, CLK1 AND/OR CLK4” (PERHA PHARMACEUTICALS, priority 2021, published 2025).
Read-outs that look alike come from different tables or passages of the source.

Legend:
Format in all cases: biochemical
CLK2 = molecular target: T1, CLK2 (Homo sapiens, UniProt P49760); test: Radiometric protein kinase assay (33PanQinase Activity Assay), CLK2; details: read-out: IC50 on CLK2 (most potent CLK2 inhibitors)
T1 construct: GST-fusion or His-tag (not specified per kinase); purchased ProQinase GmbH; host or cells: Sf9 insect cells or E. coli (not specified per kinase)
How it was run: (§1)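 Recombinant human kinases (GST- or His-tagged, full-length or active fragments, from Sf9 or E. coli) were run in the radiometric 33PanQinase assay with [γ-33P]-ATP. Compounds were tested at 10 concentrations from 10 μM to 30 nM in 1% DMSO, incubated 60 min at 30 °C, and IC50 derived from dose-response curves.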

CLK1 = molecular target: T2, CLK1 (Homo sapiens, UniProt P49759); test: Radiometric protein kinase assay (33PanQinase Activity Assay), CLK1; details: read-out: Potency Class CLK1
T2 construct: GST-fusion or His-tag (not specified per kinase); purchased ProQinase GmbH; host or cells: Sf9 insect cells or E. coli (not specified per kinase)
How it was run: as §1

DYRK3 = molecular target: T3, DYRK3 (Homo sapiens, UniProt O43781); test: Radiometric protein kinase assay (33PanQinase Activity Assay), DYRK3; details: read-out: IC50 on DYRK3 (most potent DYRK3 inhibitors)
T3 construct: GST-fusion or His-tag (not specified per kinase); purchased ProQinase GmbH; host or cells: Sf9 insect cells or E. coli (not specified per kinase)
T3 sequence (O43781 1-588): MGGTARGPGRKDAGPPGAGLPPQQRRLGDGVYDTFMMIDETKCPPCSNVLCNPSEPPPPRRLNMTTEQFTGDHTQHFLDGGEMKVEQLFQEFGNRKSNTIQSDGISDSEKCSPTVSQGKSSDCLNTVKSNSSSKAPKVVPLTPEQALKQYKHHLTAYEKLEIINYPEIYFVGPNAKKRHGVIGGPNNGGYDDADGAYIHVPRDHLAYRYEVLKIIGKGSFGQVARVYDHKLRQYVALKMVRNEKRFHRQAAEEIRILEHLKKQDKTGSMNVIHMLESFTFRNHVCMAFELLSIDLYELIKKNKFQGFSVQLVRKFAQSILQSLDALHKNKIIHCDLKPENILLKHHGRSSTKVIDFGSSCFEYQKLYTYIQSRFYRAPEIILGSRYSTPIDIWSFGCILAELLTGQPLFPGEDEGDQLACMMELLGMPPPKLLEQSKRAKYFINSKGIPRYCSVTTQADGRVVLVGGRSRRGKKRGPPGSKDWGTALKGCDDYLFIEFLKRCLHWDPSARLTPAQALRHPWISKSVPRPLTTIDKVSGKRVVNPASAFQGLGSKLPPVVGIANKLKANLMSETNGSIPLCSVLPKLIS
Procedure: (§2) Assays were performed by ProQinase GmbH (Engesserstr. 4, D-79108 Freiburg, Germany. www.proqinase.com). The IC50 profile of all compounds was determined using 12 protein kinases (CDK2/cyclin E, CK1ε, CLK1, 2, 3, 4, DYRK1A, 1B, 2, 3, 4, GSK3β).
(§3) The compounds were provided as […] in 100% DMSO. Prior to testing, the 1 μM stock solutions were subjected to a serial, semi-logarithmic dilution using 100% DMSO as a solvent. […] In the process, 90 μl H2O were added to each well of each compound dilution plate. To minimize potential precipitation, the H2O was added to each plate only a few minutes before the transfer of the compound solutions into the assay plates. The plate was shaken thoroughly, resulting in a compound dilution plate/10% DMSO.
(§4) For the assays (see below), 5 μL solution from each well of the compound dilution plates/10% DMSO were transferred into the assay plates. The final volume of the assay was 50 μL. All compounds were tested at 10 final assay concentrations in the range from 10 μM to 30 nM. The final DMSO concentration in the reaction cocktails was 1% in all cases.
(§5) All protein kinases provided by ProQinase were expressed in Sf9 insect cells or in E. coli as recombinant GST-fusion proteins or His-tagged proteins, either as full-length or enzymatically active fragments. All kinases were produced from human cDNAs and purified by either GSH-affinity chromatography or immobilized metal. Affinity tags were removed from a number of kinases during purification. The purity of the protein kinases was examined by SDS-PAGE/Coomassie staining, the identity was checked by mass spectroscopy.
(§6) A radiometric protein kinase assay (33PanQinase® Activity Assay) was used for measuring the kinase activity of the 12 protein kinases. All kinase assays were performed in 96-well FlashPlates™ from PerkinElmer (Boston, MA, USA) in a 50 μL reaction volume. The reaction cocktail was pipetted in four steps in the following order: • 25 μL of assay buffer (standard buffer/[γ-^33P]-ATP), • 10 μL of ATP solution (in H2O), • 5 μL of test compound (in 10% DMSO), • 10 μL of enzyme/substrate mixture.
(§7) The reaction cocktails were incubated at 30° C. for 60 minutes. The reaction was stopped with 50 μL of 2% (v/v) H3PO4, plates were aspirated and washed two times with 200 μL 0.9% (w/v) NaCl. Incorporation of ^33Pi was determined with a microplate scintillation counter (Microbeta, Wallac). The IC50 values for all compounds were calculated from the dose response curves
(§8) As a parameter for assay quality, the Z′-factor (Zhang et al., J. Biomol. Screen. 2: 67-73, 1999) for the low and high controls of each assay plate (n=8) was used. ProQinase's criterion for repetition of an assay plate is a Z′-factor below 0.4 (Iversen et al., J. Biomol. Screen. 3: 247-252, 2006).

DYRK2 = molecular target: T4, DYRK2 (Homo sapiens, UniProt Q92630); test: Radiometric protein kinase assay (33PanQinase Activity Assay), DYRK2; details: read-out: IC50 on DYRK2 (most potent DYRK2 inhibitors)
T4 construct: GST-fusion or His-tag (not specified per kinase); purchased ProQinase GmbH; host or cells: Sf9 insect cells or E. coli (not specified per kinase)
T4 sequence (Q92630 1-601): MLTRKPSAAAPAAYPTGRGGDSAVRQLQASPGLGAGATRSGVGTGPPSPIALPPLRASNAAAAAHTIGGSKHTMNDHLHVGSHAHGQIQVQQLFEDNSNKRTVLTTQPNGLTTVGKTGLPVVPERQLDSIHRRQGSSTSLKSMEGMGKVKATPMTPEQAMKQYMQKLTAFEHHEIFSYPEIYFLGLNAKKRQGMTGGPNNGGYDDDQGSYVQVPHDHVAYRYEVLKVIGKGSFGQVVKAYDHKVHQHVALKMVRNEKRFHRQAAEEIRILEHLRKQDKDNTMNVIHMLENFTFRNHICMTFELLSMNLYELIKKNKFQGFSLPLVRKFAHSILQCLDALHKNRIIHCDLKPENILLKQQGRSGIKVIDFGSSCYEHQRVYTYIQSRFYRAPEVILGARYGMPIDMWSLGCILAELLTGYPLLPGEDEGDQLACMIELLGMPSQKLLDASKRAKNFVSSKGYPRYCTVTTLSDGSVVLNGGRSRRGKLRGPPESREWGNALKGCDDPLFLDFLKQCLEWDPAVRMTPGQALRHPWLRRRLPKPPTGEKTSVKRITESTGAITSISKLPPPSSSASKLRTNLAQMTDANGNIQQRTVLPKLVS
Procedure: as §2, §3, §4, §5, §6, §7, §8

DYRK1A = molecular target: T5, DYRK1A (Homo sapiens, UniProt Q13627); test: Radiometric protein kinase assay (33PanQinase Activity Assay), DYRK1A
T5 construct: GST-fusion or His-tag (not specified per kinase); purchased ProQinase GmbH; host or cells: Sf9 insect cells or E. coli (not specified per kinase)
How it was run: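 Recombinant human kinase, expressed in Sf9 or E. coli, in a radiometric [γ-33P]-ATP assay at 30 °C for 60 min. Compounds tested at 10 concentrations from 10 μM to 30 nM, 1% DMSO final. 33Pi incorporation measured by scintillation counting; IC50 from dose-response curves.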

CLK4 = molecular target: T6, CLK4 (Homo sapiens, UniProt Q9HAZ1); test: Radiometric protein kinase assay (33PanQinase Activity Assay), CLK4; details: read-out: IC50 on CLK4 (most potent CLK4 inhibitors)
T6 construct: GST-fusion or His-tag (not specified per kinase); purchased ProQinase GmbH; host or cells: Sf9 insect cells or E. coli (not specified per kinase)
How it was run: as §1

T2 sequence (P49759 whole entry, the tested form may be a part): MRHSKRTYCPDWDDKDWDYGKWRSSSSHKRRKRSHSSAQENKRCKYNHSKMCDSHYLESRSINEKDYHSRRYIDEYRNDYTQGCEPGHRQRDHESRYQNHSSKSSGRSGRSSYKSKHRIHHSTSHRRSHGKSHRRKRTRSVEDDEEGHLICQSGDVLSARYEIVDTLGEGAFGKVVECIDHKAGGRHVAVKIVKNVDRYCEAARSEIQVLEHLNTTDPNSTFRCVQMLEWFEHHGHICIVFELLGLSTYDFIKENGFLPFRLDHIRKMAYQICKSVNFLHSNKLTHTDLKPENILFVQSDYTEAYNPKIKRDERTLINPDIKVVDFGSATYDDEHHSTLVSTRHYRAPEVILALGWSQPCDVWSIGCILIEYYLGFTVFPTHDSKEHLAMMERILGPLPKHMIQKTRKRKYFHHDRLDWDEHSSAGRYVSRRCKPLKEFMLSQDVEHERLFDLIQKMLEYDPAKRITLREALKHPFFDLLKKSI
T1 sequence (P49760 whole entry, the tested form may be a part): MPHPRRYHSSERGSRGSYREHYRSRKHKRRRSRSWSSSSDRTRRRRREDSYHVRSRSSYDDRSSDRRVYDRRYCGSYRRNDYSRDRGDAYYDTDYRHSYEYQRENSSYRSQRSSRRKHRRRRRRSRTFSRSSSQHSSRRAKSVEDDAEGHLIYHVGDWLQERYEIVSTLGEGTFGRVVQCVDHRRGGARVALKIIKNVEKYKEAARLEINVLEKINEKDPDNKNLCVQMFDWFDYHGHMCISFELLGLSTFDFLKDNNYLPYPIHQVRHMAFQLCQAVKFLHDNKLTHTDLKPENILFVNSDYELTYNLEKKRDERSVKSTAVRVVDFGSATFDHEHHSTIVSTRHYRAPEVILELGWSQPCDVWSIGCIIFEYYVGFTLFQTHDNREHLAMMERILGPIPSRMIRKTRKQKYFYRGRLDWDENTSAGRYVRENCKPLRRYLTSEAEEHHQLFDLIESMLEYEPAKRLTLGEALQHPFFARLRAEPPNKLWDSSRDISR
T6 sequence (Q9HAZ1 whole entry, the tested form may be a part): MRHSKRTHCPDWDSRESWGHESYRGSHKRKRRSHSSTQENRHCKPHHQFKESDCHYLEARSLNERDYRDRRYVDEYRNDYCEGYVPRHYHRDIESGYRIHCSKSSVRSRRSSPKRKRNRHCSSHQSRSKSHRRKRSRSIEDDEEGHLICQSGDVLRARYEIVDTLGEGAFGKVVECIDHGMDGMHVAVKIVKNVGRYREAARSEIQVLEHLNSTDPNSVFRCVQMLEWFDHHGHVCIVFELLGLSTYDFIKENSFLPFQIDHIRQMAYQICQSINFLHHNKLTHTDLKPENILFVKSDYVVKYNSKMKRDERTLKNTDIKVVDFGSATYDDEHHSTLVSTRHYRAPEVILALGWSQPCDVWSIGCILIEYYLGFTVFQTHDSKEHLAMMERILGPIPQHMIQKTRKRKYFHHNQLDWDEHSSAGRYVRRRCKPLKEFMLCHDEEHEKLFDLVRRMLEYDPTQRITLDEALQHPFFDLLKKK

- IC50 (CLK2): ≤ 100 nM
- IC50 (CLK1; IC50 class A to E): 10 to 25 nM
- IC50 (CLK1; class by IC50 on CLK1, from dose-response curves): 10 to 25 nM
- IC50 (DYRK3): ≤ 250 nM
- IC50 (DYRK2): ≤ 250 nM
- IC50 (DYRK1A; IC50 class A to E, read-out: Potency Class DYRK1A): ≤ 5 nM
- IC50 (DYRK1A; class by IC50 on DYRK1A, from dose-response curves, read-out: Potency Class DYRK1A): < 5 nM
- Selectivity Class DYRK1A vs. CLK1 (DYRK1A; ratio of IC50 on CLK1 over IC50 on DYRK1A): II (ratio between 2 and 10 fold)
- Selectivity Class DYRK1A vs. DYRK1B (DYRK1A; ratio of IC50 on DYRK1B over IC50 on DYRK1A): II (ratio between 2 and 10 fold)
- IC50 (DYRK1A; read-out: IC50 on DYRK1A (most potent DYRK1A inhibitors)): ≤ 10 nM
- IC50 (CLK4): ≤ 10 nM
Compound: O=C1NC(NC23CC4CC(CC(O)(C4)C2)C3)=N/C1=C\c1ccc2ncccc2c1 [Compound 50, (4Z)-2-[(3-hydroxy-1-adamantyl)amino]-4-(6-quinolylmethylene)-1H-imidazol-5-one]
